Test results from patent publication US12534454B2, “Crystal forms of 5-fluoro-1-(4-fluoro-3-(4-(pyrimidin-2-yl)piperazine-1-carbonyl)benzyl)quinazoline-2,4(1H,3H)-dione and preparation thereof” (IMPACT THERAPEUTICS (SHANGHAI), INC, priority 2020, dated 2026).
Entries after “also recorded” stand apart in the source; their conditions may differ.

Key:
Format in all cases: physicochemical
[1] = Dynamic Vapor Sorption (DVS) hygroscopicity; settings: for hygroscopicity classification: DVS; for hygroscopicity classification / mass increase (DVS): 25° C.; for change of crystal form after the DVS testing: after DVS cycle 0%-90%-0% RH; for mass increase (DVS): relative humidity from 0% to 80%
Procedure: About 10 mg of sample was transferred to a DVS sample pan and the weight change as the humidity of the environment at 25° C. changes was recorded. The parameters of […] were set as follows: • Equilibrium dm/dt: 0.01%/min: (minimum: 10 min; maximum: 180 min); • Drying: 0% RH, 120 min; • RH (%) gradients: 10%; • RH (%) cycle: 0%-90%-0%. • Definition on Hygroscopicity

[2] = Physical stability study of crystal forms (XRPD); settings: 25° C./60% RH and 40° C./75% RH (long-term and accelerated), 2 weeks
Procedure: About 10 mg of Crystal Forms II, V and VI were added into 1.5 mL vial respectively which were then placed at the conditions of 25° C./60% RH and 40° C./75% RH. The solid in the vials was examined by XRPD at the corresponding time points.

[3] = Water activity study (competition of crystal forms)
Procedure: Crystal Form VIII was dissolved in solvents with different water activity shown in the table below and then filtered by a needle filter to prepare a saturated solution. After the filtrate was transferred into a 1.5 mL vial, 2 mg of Crystal Form I, II, VIII, X and XI were added respectively and the resulting suspensions were shaken for a while at the target temperatures. After centrifugation, the solid obtained was air dried at ambient temperature (DMSO system was washed by MTBE) and then examined by XRPD to identify changes among different crystal forms.

[4] = Thermodynamic stability / solvent competition among crystal forms; settings: for thermodynamic status among anhydrate crystal forms: temperature below 50° C.
Procedure: After filtration by a needle filter, the filtrate was transferred to 1.5 mL vial. To the vial was added 5 mg of Crystal Form V and VI and the resulting suspensions were shaken for a while at the target temperatures. After centrifugation, the obtained solid was dried at 40° C. by vacuum overnight and then examined by XRPD to identify changes among different crystal forms.
With different solvents at corresponding temperatures shown in the table below, Crystal Form VIII was dissolved until saturated respectively. After filtration by a needle filter, the filtrate was transferred to 1.5 mL vial. To the vial was added 5 mg of Crystal Form III, V and IX and the resulting suspensions were shaken for a while at the target temperatures. After centrifugation, the obtained solid was dried at 40° C. by vacuum overnight and then examined by XRPD to identify changes among different crystal forms.

[5] = Long-term stability study of crystal form VIII; settings: for Water content / XRPD (crystal form): 25 ± 2° C./60 ± 5% RH
Procedure: A long-term stability study has been carried out under condition of 25° C./60% RH for the crystal form VIII.

[6] = Relative humidity X-ray powder diffraction (RH-XRPD) of Crystal Form VIII
Procedure: Based on the above data, Crystal Form VIII was most likely to be a hydrate. […] Therefore, Crystal Form VIII was further characterized by RH-XRPD to confirm the hydrate crystal Form and to have the knowledge of the crystal Form transformation with the different RH.
The parameters of XRPD used in the test were as follows: • Tube: Cu/K-Alpha (λ=1.54179Å); • Generator: Voltage: 40 KV; Current: 40 mA; • Scan Scope: 3-40 deg; • Scan Speed: 10 deg/min.
About 100 mg of compound was evenly distributed to form a layer in a sample holder and transferred to a RH control component in which the relative humidity was controlled and adjusted by the ratio of dry/wet N2 blown.

O=C(c1cc(Cn2c(=O)[nH]c(=O)c3c(F)cccc32)ccc1F)N1CCN(c2ncccn2)CC1 [Crystal Form II, 5-fluoro-1-(4-fluoro-3-(4-(pyrimidin-2-yl)piperazine-1-carbonyl)benzyl)quinazoline-2,4(1H,3H)-dione]
hygroscopicity classification [1]: hygroscopic | crystal form change within two weeks [2]: no crystal form change; also recorded: not changed | crystal form change in a low water activity ([3]; Aw<0.3): changed to Crystal Form V

O=C(c1cc(Cn2c(=O)[nH]c(=O)c3c(F)cccc32)ccc1F)N1CCN(c2ncccn2)CC1 [Crystal Form III, 5-fluoro-1-(4-fluoro-3-(4-(pyrimidin-2-yl)piperazine-1-carbonyl)benzyl)quinazoline-2,4(1H,3H)-dione]
thermodynamic status among anhydrate crystal forms ([4]; anhydrous solvents): metastable

O=C(c1cc(Cn2c(=O)[nH]c(=O)c3c(F)cccc32)ccc1F)N1CCN(c2ncccn2)CC1 [Crystal Form IX, 5-fluoro-1-(4-fluoro-3-(4-(pyrimidin-2-yl)piperazine-1-carbonyl)benzyl)quinazoline-2,4(1H,3H)-dione]
thermodynamic status among anhydrate crystal forms ([4]; anhydrous solvents): metastable

O=C(c1cc(Cn2c(=O)[nH]c(=O)c3c(F)cccc32)ccc1F)N1CCN(c2ncccn2)CC1 [Crystal Form V, 5-fluoro-1-(4-fluoro-3-(4-(pyrimidin-2-yl)piperazine-1-carbonyl)benzyl)quinazoline-2,4(1H,3H)-dione]
hygroscopicity classification [1]: slight hygroscopic | change of crystal form after the DVS testing [1]: no significant change | mass increase (DVS) [1]: about 0.8% | crystal form change within two weeks [2]: no crystal form change; also recorded: not changed | relative stability in the anhydrous solvents ([4]; anhydrous solvents, 25° C., 50° C. and 80° C.): more stable than Crystal Form VI | thermodynamic status among anhydrate crystal forms ([4]; anhydrous solvents): dominant | crystal form change in the hydrous solvents [4]: changed to Crystal Form II | crystal form change in a high water activity ([3]; Aw>0.3): changed to Crystal Form II

O=C(c1cc(Cn2c(=O)[nH]c(=O)c3c(F)cccc32)ccc1F)N1CCN(c2ncccn2)CC1 [Crystal Form VI, 5-fluoro-1-(4-fluoro-3-(4-(pyrimidin-2-yl)piperazine-1-carbonyl)benzyl)quinazoline-2,4(1H,3H)-dione]
hygroscopicity classification [1]: slight hygroscopic | change of crystal form after the DVS testing [1]: no significant change | mass increase (DVS) [1]: about 0.5% | crystal form change within two weeks [2]: not changed | thermodynamic status among anhydrate crystal forms ([4]; anhydrous solvents): metastable | crystal form change in the hydrous solvents [4]: changed to Crystal Form II

O.O.O=C(c1cc(Cn2c(=O)[nH]c(=O)c3c(F)cccc32)ccc1F)N1CCN(c2ncccn2)CC1 [Crystal Form VIII, 5-fluoro-1-(4-fluoro-3-(4-(pyrimidin-2-yl)piperazine-1-carbonyl)benzyl)quinazoline-2,4(1H,3H)-dione dihydrate]
hygroscopicity (in words) [1]: high hygroscopicity | change of water content in long-term stability ([5]; 25° C./60% RH, up to 24 months): no significant change | crystal form change in long-term stability ([5]; 25° C./60% RH, up to 24 months): no crystal form change | long-term stability (in words) ([5]; 25° C./60% RH, up to 24 months): stable | Water content ([5]; 9 months): 7.8% | Water content ([5]; 12 months): 7.7% | XRPD (crystal form) ([5]; 12 months): Form VIII | Water content ([5]; 18 months): 7.6% | Water content ([5]; 24 months): 7.4% | XRPD (crystal form) ([5]; 24 months): Form VIII | Water content ([5]; Initial): 7.7% | XRPD (crystal form) ([5]; Initial): Form VIII | Crystal Form (RH-XRPD), absorption process ([6]; 0% RH, equilibrium 2 hour): XII | Crystal Form (RH-XRPD), desorption process ([6]; 0% RH, equilibrium 2 hour): XII | Crystal Form (RH-XRPD), absorption process ([6]; 10% RH, equilibrium 2 hour): XII | Crystal Form (RH-XRPD), desorption process ([6]; 10% RH, equilibrium 2 hour): XII | Crystal Form (RH-XRPD), absorption process ([6]; 20% RH, equilibrium 2 hour): XII | Crystal Form (RH-XRPD), desorption process ([6]; 20% RH, equilibrium 2 hour): XII | Crystal Form (RH-XRPD), absorption process ([6]; 30% RH, equilibrium 2 hour): “VIII” | Crystal Form (RH-XRPD), desorption process ([6]; 30% RH, equilibrium 2 hour): VIII | Crystal Form (RH-XRPD), absorption process ([6]; 40% RH, equilibrium 2 hour): VIII | Crystal Form (RH-XRPD), desorption process ([6]; 40% RH, equilibrium 2 hour): VIII | Crystal Form (RH-XRPD), absorption process ([6]; 50% RH, equilibrium 2 hour): VIII | Crystal Form (RH-XRPD), desorption process ([6]; 50% RH, equilibrium 2 hour): VIII | Crystal Form (RH-XRPD), absorption process ([6]; 60% RH, equilibrium 0.5 hour): VIII | Crystal Form (RH-XRPD), desorption process ([6]; 60% RH, equilibrium 0.5 hour): VIII | Crystal Form (RH-XRPD), absorption process ([6]; 70% RH, equilibrium 0.5 hour): VIII | Crystal Form (RH-XRPD), desorption process ([6]; 70% RH, equilibrium 0.5 hour): VIII | Crystal Form (RH-XRPD), absorption process ([6]; 80% RH, equilibrium 0.5 hour): VIII | Crystal Form (RH-XRPD), desorption process ([6]; 80% RH, equilibrium 0.5 hour): VIII | Crystal Form (RH-XRPD), absorption process ([6]; 90% RH, equilibrium 0.5 hour): VIII | Crystal Form (RH-XRPD), desorption process ([6]; 90% RH, equilibrium 0.5 hour): VIII | relative humidity at which the crystal form is stable ([6]; RH-XRPD and DVS, below it water is lost and the crystal form changes): no less than 40 % RH

O=C(c1cc(Cn2c(=O)[nH]c(=O)c3c(F)cccc32)ccc1F)N1CCN(c2ncccn2)CC1 [Crystal Form “VIII”, 5-fluoro-1-(4-fluoro-3-(4-(pyrimidin-2-yl)piperazine-1-carbonyl)benzyl)quinazoline-2,4(1H,3H)-dione]
crystal form after moisture absorption ([6]; 5° C./75% RH, ambient temperature/75% RH, or 40° C./75% RH): return to Crystal Form VIII
